According to patent US9272026B2, “HLA-A*1101-restricted WT1 peptide and pharmaceutical composition comprising the same” (International Institute of Cancer Immunology, Inc., priority 2006, dated 2016):
Read-outs that look alike come from different tables or passages of the source. No end group written: not given here.

Legend:
B-LCLs expressing WT1 [1] = test: 51Cr release assay: cytotoxic activity of CTL against cell expressing WT1 endogenously; details: B-LCL into which a human WT1 gene is introduced; FIGS. 1, 2, 4, 5 and 7
Experimental: (§1) The PBMCs were then seeded to a 24-well cell culture plate at the density of about 1×10^7 in RPMI 1640 medium containing 10% FCS, and a culture supernatant of B95-8 cells (cells producing EB virus) were added. They were cultured at 37° C. with 5% CO2 for about 1 month. B-LCL cells transformed with EB virus, which are B-cell tumor cells, were obtained. […] B-LCL cells were pulsed by incubating them with 20 μg/ml of WT1251, WT1279, WT1312, WT1313, WT1338, WT1378, WT1386, WT1415 or WT1436 for 2 hours, and irradiated with 80 Gy of radiation. The resulting B-LCL cells (hereinafter referred to as B-LCL cells pulsed with a WT1 peptide) were used as antigen-presenting cells for the following experiments.
(§2) 3×10^6 of autologous PBMCs were cultured in a 24-well cell culture plate in complete medium (45% RPMI, 45% AMI-V medium and 10% human AB serum) containing 20 μg/ml of WT1251, WT1279, WT1312, WT1313, WT1338, WT1378, WT1386, WT1415 or WT1436 at 37° C. with 5% CO2 for 1 week to obtain responding cells. 2×10^6 of the resulting responding cells were cocultured with 1×10^6 of the B-LCL cells pulsed with the same WT1 peptide in complete medium for 1 week (first stimulation). The PBMCs were coculutured with the B-LCL cells pulsed with the WT1 peptide three more times (second to fourth stimulations) under the conditions under which 20 IU/ml (final concentration) of IL2 was added as follows: second stimulation: two times every other day from 3 days after the initiation of stimulation; third and fourth stimulations: three times at intervals of one day from the day after the initiation of stimulation. The resulting cells were concentrated using Negative Selection Columns Gravity Feed Kit (StemSp) so that the ratio of CD8-positive T cells became about 80%, and cocultured with the B-LCL cells pulsed with the WT1 peptide (fifth stimulation). CD8-positive T cells (CTLs) obtained 5 days after the final stimulation were used for measurement of the cytotoxic activity.
(§3) The cytotoxic activity of CTLs was measured using ^51Cr release assay. CTL cells (hereinafter referred to as effector cells) were mixed at the ratio (E/T ration) of 1:1 to 30:1 in 200 μl of medium with target cells into which ^51Cr had been incorporated, and cultured in a 96-well cell culture plate at 37° C. with 5% CO2 for 4 hours. B-LCL cells pulsed with the same WT1 peptide as that used for induction of CTLs (BLCL-Ps), and B-LCL cells without pulsing with a WT1 peptide (BLCL-NPs) were used as target cells. After the culture, the supernatants were collected by centrifugation. The amounts of ^51Cr released into the supernatants were measured using a liquid scintillation counter. The cytotoxic activity (%) was determined using the following formula: (^51Cr release in supernatant of sample−Spontaneous ^51Cr release)/(Maximum ^51Cr release−Spontaneous ^51Cr release)×100 wherein Spontaneous ^51Cr release is ^51Cr release observed when the target cells into which ^51Cr had been incorporated were cultured alone under the same condition, and Maximum ^51Cr release is ^51Cr release observed when the target cells into which ^51Cr had been incorporated were completely lysed using 1% Triton X-100.
(§4) The cytotoxic activity of CTLs induced with WT1251, WT1279, WT1313, WT1338 or WT1386 against B-LCLs expressing WT1 was determined using the method described above.

[2] = tested on: B-LCL cells pulsed with the same WT1 peptide (BLCL-Ps); test: 51Cr release assay: cytotoxic activity of CTLs induced with WT1 peptide against peptide-pulsed B-LCL cells; details: CTLs induced with 20 μg/ml peptide; E/T ratio 1:1 to 30:1; 4 hours; FIGS. 1-9
Experimental: The PBMCs were then seeded to a 24-well cell culture plate at the density of about 1×10^7 in RPMI 1640 medium containing 10% FCS, and a culture supernatant of B95-8 cells (cells producing EB virus) were added. They were cultured at 37° C. with 5% CO2 for about 1 month. B-LCL cells transformed with EB virus, which are B-cell tumor cells, were obtained. […] B-LCL cells were pulsed by incubating them with 20 μg/ml of WT1251, WT1279, WT1312, WT1313, WT1338, WT1378, WT1386, WT1415 or WT1436 for 2 hours, and irradiated with 80 Gy of radiation. The resulting B-LCL cells (hereinafter referred to as B-LCL cells pulsed with a WT1 peptide) were used as antigen-presenting cells for the following experiments. […]
The cytotoxic activity of CTLs was measured using ^51Cr release assay. […] The amounts of ^51Cr released into the supernatants were measured using a liquid scintillation counter. The cytotoxic activity (%) was determined using the following formula: (^51Cr release in supernatant of sample−Spontaneous ^51Cr release)/(Maximum ^51Cr release−Spontaneous ^51Cr release)×100 wherein Spontaneous ^51Cr release is ^51Cr release observed when the target cells into which ^51Cr had been incorporated were cultured alone under the same condition, and Maximum ^51Cr release is ^51Cr release observed when the target cells into which ^51Cr had been incorporated were completely lysed using 1% Triton X-100.

human cells = details: HLA-A*2402; Non-patent Document 12; cited from earlier work
B-LCLs expressing WT1 [3] = tested on: B-LCLs expressing WT1
Experimental: as §1, §2, §3, §4

[4] = tested on: human peripheral blood mononuclear cells having HLA-A*0201; details: human PBMCs having HLA-A*0201; Non-patent Document 11; cited from earlier work
[5] = tested on: PBMCs from HLA-A*1101-positive healthy donors; test: Induction of CTL by WT1 peptide dimer and related peptides using PBMCs from HLA-A*1101-positive healthy donors 1-3; assay type: cell-based, human; details: FIGS. 10-14
Source text: After the culture, the supernatants were collected by centrifugation.
Abilities of the resulting WT1378 peptide dimer, WT1378 peptide, modified WT1378 peptide (G→I) (SEQ ID No: 11) and modified WT1378 peptide (G→V) (SEQ ID No: 12) as well as WT1379 peptide (SEQ ID No: 13, as disclosed in WO 2002/28414) to induce a CTL were examined using PBMCs from HLA-A*1101-positive healthy donors 1-3 according to the method as described above.

For AAGSSSSVK [WT1251], the “cytotoxic activity of induced CTLs against cells expressing WT1 gene endogenously” value (B-LCLs expressing WT1 [1]) was “have a cytotoxic activity against cells expressing WT1 gene endogenously” and the “cytotoxic activity of induced CTLs against BLCL-Ps as compared with BLCL-NPs” value [2] was “damage specifically BLCL-Ps”.

For “CMTWNQMNL (listed as Homo sapiens) [WT1235, WT1 peptide that matches HLA-A*2402]”, the “induction of WT1-specific CTLs” value (human cells) is given as “WT1-specific CTLs (TAK-1) are induced”.

For KTCQRKFSR [WT1386], the “cytotoxic activity of induced CTLs against cells expressing WT1 gene endogenously” value (B-LCLs expressing WT1 [3]) was “have a cytotoxic activity against cells expressing WT1 gene endogenously”.

With PILCGAQYR [WT1279] the “cytotoxic activity of induced CTLs against cells expressing WT1 gene endogenously” value (B-LCLs expressing WT1 [3]) was “have a cytotoxic activity against cells expressing WT1 gene endogenously”.

In the case of SASETSEKR [WT1313], the “cytotoxic activity of induced CTLs against cells expressing WT1 gene endogenously” value (B-LCLs expressing WT1 [3]) is reported as “have a cytotoxic activity against cells expressing WT1 gene endogenously”.

For SHLQMNSRK [WT1338], the “cytotoxic activity of induced CTLs against cells expressing WT1 gene endogenously” value (B-LCLs expressing WT1 [3]) was “have a cytotoxic activity against cells expressing WT1 gene endogenously”.

In the case of “SLGEQQYSV (listed as Homo sapiens) [WH187 peptide]”, the “induction of WT1-specific CTLs” value [4] is listed as “WT1-specific CTLs are induced”.

With “WT1379 peptide: known peptide disclosed in WO 2002/28414; differs from WT1378 peptide by one amino acid in the WT1 protein sequence (GVKPFQCKT; listed as Homo sapiens)” the “ability to induce a CTL” value [5] was “much lower than that of WT1378 peptide”.
